This is an account of results in the supplement of paper PMC10307832.

Holding throughout (experiment): relative viability (nuclei count vs DMSO), 5 days (fraction); higher = more cells survive
Compound in the experiment “RU-SKI 43 + Alpelisib”: CC[C@@H](C)CNCC(=O)N1CCC2=C([C@@H]1COC3=CC=CC(=C3)C)C=CS2 [RU-SKI 43] + Cc1nc(NC(=O)N2CCC[C@H]2C(N)=O)sc1-c1ccnc(C(C)(C)C(F)(F)F)c1 [Alpelisib] (partner 2 µM)
The method in brief:
(§1)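 One day after seeding in 1536-well plates, lung cancer cell lines were dosed by pin tool. Dosing was either single-drug or a fixed anchor-drug dose plus five library-drug doses (not always all listed) in √10 steps. After 5 days, nuclei were stained in one fix-and-stain step and counted on 4× images, and relative viability is the nuclei count of treated wells over that of vehicle wells, given as the median of duplicate plates.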

Compound in the experiment “RU-SKI 43 + Olaparib”: CC[C@@H](C)CNCC(=O)N1CCC2=C([C@@H]1COC3=CC=CC(=C3)C)C=CS2 [RU-SKI 43] + O=C(c1cc(Cc2n[nH]c(=O)c3ccccc23)ccc1F)N1CCN(C(=O)C2CC2)CC1 [Olaparib] (partner 8 µM)
The method in brief:
as §1

Compound in the experiment “Irinotecan + Trametinib”: CCc1c2c(nc3ccc(OC(=O)N4CCC(N5CCCCC5)CC4)cc13)-c1cc3c(c(=O)n1C2)COC(=O)[C@]3(O)CC [Irinotecan] + CC(=O)Nc1cccc(-n2c(=O)n(C3CC3)c(=O)c3c(Nc4ccc(I)cc4F)n(C)c(=O)c(C)c32)c1 [Trametinib] (partner 0.02 µM)
The procedure, abridged:
as §1

Compound in the experiment “Irinotecan + Lapatinib”: CCc1c2c(nc3ccc(OC(=O)N4CCC(N5CCCCC5)CC4)cc13)-c1cc3c(c(=O)n1C2)COC(=O)[C@]3(O)CC [Irinotecan] + CS(=O)(=O)CCNCc1ccc(-c2ccc3ncnc(Nc4ccc(OCc5cccc(F)c5)c(Cl)c4)c3c2)o1 [Lapatinib] (partner 2 µM)
The method in brief:
as §1

For the cell line RERF-LC-KJ, the relative viability in the experiment with RU-SKI 43 + Alpelisib (first compound 0.1 µM) was found to be 0.826; with RU-SKI 43 + Alpelisib (first compound 0.3162 µM), 0.98; with RU-SKI 43 + Alpelisib (first compound 1 µM), 0.734; with RU-SKI 43 + Alpelisib (first compound 3.162 µM), 0.821; in the experiment with RU-SKI 43 + Alpelisib (first compound 10 µM) it was 0.802; with RU-SKI 43 + Olaparib (first compound 0.1 µM) it was 0.818. Further, the relative viability with RU-SKI 43 + Olaparib (first compound 0.3162 µM) stood at 1.04; in the experiment with RU-SKI 43 + Olaparib (first compound 1 µM) it was 0.914; with RU-SKI 43 + Olaparib (first compound 3.162 µM), 0.876; with RU-SKI 43 + Olaparib (first compound 10 µM) it was 0.811; in the experiment with Irinotecan + Trametinib (first compound 0.6325 µM) it was 0.869; with Irinotecan + Trametinib (first compound 2 µM), 0.63. Also, the relative viability in the experiment with Irinotecan + Trametinib (first compound 6.325 µM) came out at 0.433; in the experiment with Irinotecan + Trametinib (first compound 20 µM), 0.282; with Irinotecan + Lapatinib (first compound 0.6325 µM), 0.833; with Irinotecan + Lapatinib (first compound 2 µM) it was 0.692; with Irinotecan + Lapatinib (first compound 6.325 µM), 0.439; in the experiment with Irinotecan + Lapatinib (first compound 20 µM), 0.364.

For the cell line SK-LU-1, the relative viability is 0.931 with RU-SKI 43 + Alpelisib (first compound 0.1 µM); 1.31 in the experiment with RU-SKI 43 + Alpelisib (first compound 0.3162 µM); 1.25 with RU-SKI 43 + Alpelisib (first compound 1 µM); 1.13 with RU-SKI 43 + Alpelisib (first compound 3.162 µM); 1.01 with RU-SKI 43 + Alpelisib (first compound 10 µM); 0.449 with RU-SKI 43 + Olaparib (first compound 0.1 µM). The relative viability in the experiment with RU-SKI 43 + Olaparib (first compound 0.3162 µM) amounted to 0.397; with RU-SKI 43 + Olaparib (first compound 1 µM), 0.531; with RU-SKI 43 + Olaparib (first compound 3.162 µM) it was 0.46; in the experiment with RU-SKI 43 + Olaparib (first compound 10 µM), 0.44; with Irinotecan + Trametinib (first compound 0.6325 µM) it was 0.36; with Irinotecan + Trametinib (first compound 2 µM) it was 0.417. Besides, the relative viability turned out to be 0.399 with Irinotecan + Trametinib (first compound 6.325 µM); 0.316 with Irinotecan + Trametinib (first compound 20 µM); 0.46 with Irinotecan + Lapatinib (first compound 0.6325 µM); 0.503 in the experiment with Irinotecan + Lapatinib (first compound 2 µM); 0.321 with Irinotecan + Lapatinib (first compound 6.325 µM); 0.312 with Irinotecan + Lapatinib (first compound 20 µM).

Turning to SK-MES-1, the relative viability with RU-SKI 43 + Alpelisib (first compound 0.1 µM) was found to be 0.893; with RU-SKI 43 + Alpelisib (first compound 0.3162 µM), 0.879; in the experiment with RU-SKI 43 + Alpelisib (first compound 1 µM) it was 1.01; with RU-SKI 43 + Alpelisib (first compound 3.162 µM), 1.15; with RU-SKI 43 + Alpelisib (first compound 10 µM), 0.892; in the experiment with RU-SKI 43 + Olaparib (first compound 0.1 µM) it was 0.643. Moreover, the relative viability with RU-SKI 43 + Olaparib (first compound 0.3162 µM) was 0.775; in the experiment with RU-SKI 43 + Olaparib (first compound 1 µM) it was 0.762; in the experiment with RU-SKI 43 + Olaparib (first compound 3.162 µM), 0.737; in the experiment with RU-SKI 43 + Olaparib (first compound 10 µM) it was 0.702; with Irinotecan + Trametinib (first compound 0.6325 µM) it was 0.528; in the experiment with Irinotecan + Trametinib (first compound 2 µM) it was 0.557. Also, the relative viability with Irinotecan + Trametinib (first compound 6.325 µM) stood at 0.311; in the experiment with Irinotecan + Trametinib (first compound 20 µM) it was 0.173; with Irinotecan + Lapatinib (first compound 0.6325 µM), 0.544; in the experiment with Irinotecan + Lapatinib (first compound 2 µM), 0.414; with Irinotecan + Lapatinib (first compound 6.325 µM), 0.25; in the experiment with Irinotecan + Lapatinib (first compound 20 µM) it was 0.32.

In the case of SW 1573, the relative viability with RU-SKI 43 + Alpelisib (first compound 0.1 µM) came to 0.884; in the experiment with RU-SKI 43 + Alpelisib (first compound 0.3162 µM) it was 0.937; in the experiment with RU-SKI 43 + Alpelisib (first compound 1 µM), 0.695; with RU-SKI 43 + Alpelisib (first compound 3.162 µM), 0.793; with RU-SKI 43 + Alpelisib (first compound 10 µM), 0.637; with RU-SKI 43 + Olaparib (first compound 0.1 µM), 0.442. In addition, the relative viability came out at 0.479 with RU-SKI 43 + Olaparib (first compound 0.3162 µM); 0.51 with RU-SKI 43 + Olaparib (first compound 1 µM); 0.435 with RU-SKI 43 + Olaparib (first compound 3.162 µM); 0.41 with RU-SKI 43 + Olaparib (first compound 10 µM); 0.432 with Irinotecan + Trametinib (first compound 2 µM); 0.138 with Irinotecan + Trametinib (first compound 6.325 µM). For the same cell line, the relative viability was 0.0925 in the experiment with Irinotecan + Trametinib (first compound 20 µM); 0.965 in the experiment with Irinotecan + Lapatinib (first compound 0.6325 µM); 1.11 with Irinotecan + Lapatinib (first compound 2 µM); 0.326 in the experiment with Irinotecan + Lapatinib (first compound 6.325 µM); 0.195 with Irinotecan + Lapatinib (first compound 20 µM).
